Results from patent US6737383B1, “Herbicidal oxadiazolidines” (priority 1999, dated 2004).

Tests used:
wild oat = test: Test B pre/postemergence wild oat; type: in vivo, Avena fatua
Summary of the method: (§1)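 Herbicidal effect was estimated by eye on a ten-point control scale after plants spent twelve to sixteen days in a greenhouse following soil or foliar treatment. Foliar sprays targeted plants at one to four leaves; all doses were formulated in a non-phytotoxic solvent with surfactant.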

surinam grass = test: Test B pre/postemergence surinam grass; type: in vivo, Brachiaria decumbens
Summary of the method: as §1

rice = test: Test B flood test rice; type: in vivo, Oryza sativa
Summary of the method: (§2)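 Plants were grown to the 2-leaf stage before treatment with test chemical, then held in a greenhouse for twelve to sixteen days. Injury was visually rated against untreated controls on a 0–10 scale, where 0 is no effect and 10 is complete control.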

bamyardgrass = test: Test B flood test barnyardgrass; type: in vivo, Echinochloa crus-galli
Summary of the method: as §2

cocklebur = test: Test B pre/postemergence cocklebur; type: in vivo, Xanthium strumarium
Summary of the method: as §1

velvetleaf = test: Test B pre/postemergence velvetleaf; type: in vivo, Abutilon theophrasti
Summary of the method: as §1

giant foxtail = test: Test B pre/postemergence giant foxtail; type: in vivo, Setaria faberii
Summary of the method: as §1

blackgrass = test: Test B pre/postemergence blackgrass; type: in vivo, Alopecurus myosuroides
Summary of the method: as §1

corn = test: Test B pre/postemergence corn; type: in vivo, Zea mays
Summary of the method: as §1

purple nutsedge = test: Test B pre/postemergence purple nutsedge; type: in vivo, Cyperus rotundus
Summary of the method: as §1

soybean = test: Test B pre/postemergence soybean; type: in vivo, Glycine max
Summary of the method: as §1

bedstraw = test: Test B pre/postemergence bedstraw; type: in vivo, Galium aparine
Summary of the method: as §1

duck salad = test: Test B flood test duck salad; type: in vivo, Heteranthera limosa
Summary of the method: as §2

wheat = test: Test B pre/postemergence wheat; type: in vivo, Triticum aestivum
Summary of the method: as §1

crabgrass = test: Test B pre/postemergence crabgrass; type: in vivo, Digitaria sanguinalis
Summary of the method: as §1

morningglory = test: Test B pre/postemergence morningglory; type: in vivo, Ipomoea hederacea
Summary of the method: as §1

smallflower flatsedge = test: Test B flood test smallflower flatsedge; type: in vivo, Cyperus difformis
Summary of the method: as §2

[1] = Postemergence, Rate 62 g/ha, scale 0 to 10, 0 is no effect, 10 is complete control
[2] = Postemergence, Rate 250 g/ha, scale 0 to 10, 0 no effect, 10 complete control
[3] = Preemergence, Rate 125 g/ha, scale 0 to 10 (0 no effect, 10 complete control)
[4] = Preemergence, Rate 250 g/ha, scale of 0 to 10 where 0 is no effect and 10 is complete control
[5] = Preemergence, Rate 500 g/ha, scale 0 (no effect) to 10 (complete control)
[6] = Rate 125 g/ha, Postemergence, scale 0 to 10, 0 no effect, 10 complete control
[7] = Preemergence, Rate 62 g/ha, scale 0 to 10, 0 is no effect, 10 is complete control
[8] = Rate 500 g/ha, Postemergence, 0 to 10 scale (0 no effect, 10 complete control)
[9] = Rate 125 g/ha, Postemergence section (flood test species), scale 0 to 10, 0 no effect, 10 complete control
[10] = Rate 250 g/ha, headed Pre-emergence (flood test species), scale 0 to 10 (0 no effect, 10 complete control)
[11] = Rate 500 g/ha, Postemergence section of Table B, 0 to 10 scale (0 no effect, 10 complete control)
[12] = Rate 500 g/ha, headed Pre-emergence (flood test species), scale 0 to 10 (0 no effect, 10 complete control)
[13] = Rate 1000 g/ha, Pre-emergence (as headed), scale 0 to 10
[14] = Rate 2000 g/ha, Pre-emergence (as headed), scale 0 to 10
[15] = flood test, listed under Postemergence, Rate 250 g/ha, scale 0 to 10, 0 no effect, 10 complete control

In the case of Cc1cccc(C)c1-n1c(=O)on(C(=O)N(c2ccccc2)C(C)C)c1=O [Compound 46], the “Wild oats plant response rating” value (wild oat; [1]) is reported as 0, the “Wild oats plant response rating” value (wild oat; [2]) is reported as 0 and the “Plant response rating, Wild oats” value (wild oat; [3]) is reported as 0. For the same compound, the “Plant response rating, Wild oats” value (wild oat; [4]) was 0, the “Wild oats plant response rating” value (wild oat; [5]) was 0 and the “Wild oats plant response rating” value (wild oat; [6]) was 0. The “B. signalgrass plant response rating” value (surinam grass; [1]) was 0, the “B. signalgrass plant response rating” value (surinam grass; [2]) was 0 and the “Plant response rating, B. signalgrass” value (surinam grass; [7]) was 0. The “Plant response rating, B. signalgrass” value (surinam grass; [3]) was 0, the “Plant response rating, B. signalgrass” value (surinam grass; [4]) was 2 and the “B. signalgrass plant response rating” value (surinam grass; [5]) was 3. The “B. signalgrass plant response rating” value (surinam grass; [6]) was 0, the “B. signalgrass plant response rating” value (surinam grass; [8]) was 0 and the “Rice plant response rating” value (rice; [1]) was 0. For the same compound, the “Rice plant response rating” value (rice; [9]) was 0, the “Rice plant response rating” value (rice; [10]) was 0 and the “Rice plant response rating” value (rice; [11]) was 0. For the same compound, the “Plant response rating, Rice” value (rice; [12]) was 0, the “Rice plant response rating” value (rice; [13]) was 0 and the “Rice plant response rating” value (rice; [14]) was 0. For the same compound, the “Rice plant response rating” value (rice; [15]) was 0, the “Barnyardgrass plant response rating” value (bamyardgrass; [1]) was 0 and the “Barnyardgrass plant response rating” value (bamyardgrass; [9]) was 0. The “Barnyardgrass plant response rating” value (bamyardgrass; [10]) was 0, the “Barnyardgrass plant response rating” value (bamyardgrass; [11]) was 0 and the “Plant response rating, Barnyardgrass” value (bamyardgrass; [12]) was 0. The “Barnyardgrass plant response rating” value (bamyardgrass; [13]) was 0, the “Barnyardgrass plant response rating” value (bamyardgrass; Rate 2000 g/ha, Pre-emergence (as headed), scale 0 to 10, 0 no effect, 10 complete control) was 9 and the “Barnyardgrass plant response rating” value (bamyardgrass; [15]) was 0. For the same compound, the “Cocklebur plant response rating” value (cocklebur; [1]) was 0, the “Cocklebur plant response rating” value (cocklebur; [2]) was 1 and the “Plant response rating, Cocklebur” value (cocklebur; [7]) was 0. For the same compound, the “Plant response rating, Cocklebur” value (cocklebur; [3]) was 0, the “Plant response rating, Cocklebur” value (cocklebur; [4]) was 0 and the “Cocklebur plant response rating” value (cocklebur; [5]) was 0. For the same compound, the “Cocklebur plant response rating” value (cocklebur; [6]) was 1, the “Cocklebur plant response rating” value (cocklebur; [8]) was 2 and the “Velvetleaf plant response rating” value (velvetleaf; [1]) was 0. The “Velvetleaf plant response rating” value (velvetleaf; [2]) was 0, the “Plant response rating, Velvetleaf” value (velvetleaf; [7]) was 0 and the “Plant response rating, Velvetleaf” value (velvetleaf; [3]) was 0. The “Plant response rating, Velvetleaf” value (velvetleaf; [4]) was 0, the “Velvetleaf plant response rating” value (velvetleaf; [5]) was 2 and the “Velvetleaf plant response rating” value (velvetleaf; [6]) was 0. For the same compound, the “Giant foxtail plant response rating” value (giant foxtail; [1]) was 0, the “Giant foxtail plant response rating” value (giant foxtail; [2]) was 1 and the “Plant response rating, Giant foxtail” value (giant foxtail; [7]) was 10. The “Plant response rating, Giant foxtail” value (giant foxtail; [3]) was 10, the “Plant response rating, Giant foxtail” value (giant foxtail; [4]) was 10 and the “Giant foxtail plant response rating” value (giant foxtail; [5]) was 10. For the same compound, the “Giant foxtail plant response rating” value (giant foxtail; [6]) was 1, the “Giant foxtail plant response rating” value (giant foxtail; [8]) was 6 and the “Blackgrass plant response rating” value (blackgrass; [1]) was 0. For the same compound, the “Blackgrass plant response rating” value (blackgrass; [2]) was 6, the “Plant response rating, Blackgrass” value (blackgrass; [7]) was 0 and the “Plant response rating, Blackgrass” value (blackgrass; [3]) was 0. For the same compound, the “Plant response rating, Blackgrass” value (blackgrass; [4]) was 2, the “Blackgrass plant response rating” value (blackgrass; [5]) was 7 and the “Blackgrass plant response rating” value (blackgrass; [6]) was 0. For the same compound, the “Blackgrass plant response rating” value (blackgrass; [8]) was 6, the “Corn plant response rating” value (corn; [1]) was 0 and the “Corn plant response rating” value (corn; [2]) was 0. The “Plant response rating, Corn” value (corn; [7]) was 0, the “Plant response rating, Corn” value (corn; [3]) was 0 and the “Plant response rating, Corn” value (corn; [4]) was 0. The “Corn plant response rating” value (corn; [5]) was 0, the “Corn plant response rating” value (corn; [6]) was 0 and the “Corn plant response rating” value (corn; [8]) was 0. For the same compound, the “Nutsedge plant response rating” value (purple nutsedge; [1]) was 0, the “Nutsedge plant response rating” value (purple nutsedge; [2]) was 0 and the “Plant response rating, Nutsedge” value (purple nutsedge; [7]) was 0. The “Plant response rating, Nutsedge” value (purple nutsedge; [3]) was 0, the “Plant response rating, Nutsedge” value (purple nutsedge; [4]) was 0 and the “Nutsedge plant response rating” value (purple nutsedge; [5]) was 0. The “Nutsedge plant response rating” value (purple nutsedge; [6]) was 0, the “Nutsedge plant response rating” value (purple nutsedge; [8]) was 0 and the “Soybean plant response rating” value (soybean; [1]) was 1. The “Soybean plant response rating” value (soybean; [2]) was 1, the “Plant response rating, Soybean” value (soybean; [7]) was 0 and the “Plant response rating, Soybean” value (soybean; [3]) was 0. For the same compound, the “Plant response rating, Soybean” value (soybean; [4]) was 0, the “Soybean plant response rating” value (soybean; [5]) was 0 and the “Soybean plant response rating” value (soybean; [6]) was 1. For the same compound, the “Bedstraw plant response rating” value (bedstraw; [1]) was 0, the “Plant response rating, Bedstraw” value (bedstraw; [7]) was 0 and the “Plant response rating, Bedstraw” value (bedstraw; [3]) was 0. The “Plant response rating, Bedstraw” value (bedstraw; [4]) was 0, the “Bedstraw plant response rating” value (bedstraw; [5]) was 0 and the “Bedstraw plant response rating” value (bedstraw; [6]) was 0. The “Ducksalad plant response rating” value (duck salad; [1]) was 0, the “Ducksalad plant response rating” value (duck salad; [10]) was 0 and the “Ducksalad plant response rating” value (duck salad; [11]) was 0. For the same compound, the “Plant response rating, Ducksalad” value (duck salad; [12]) was 0, the “Ducksalad plant response rating” value (duck salad; [13]) was 2 and the “Ducksalad plant response rating” value (duck salad; [14]) was 2. The “Ducksalad plant response rating” value (duck salad; [15]) was 0, the “Wheat plant response rating” value (wheat; [1]) was 0 and the “Wheat plant response rating” value (wheat; [2]) was 0. The “Plant response rating, Wheat” value (wheat; [7]) was 0, the “Plant response rating, Wheat” value (wheat; [3]) was 0 and the “Plant response rating, Wheat” value (wheat; [4]) was 0. The “Wheat plant response rating” value (wheat; [5]) was 0, the “Wheat plant response rating” value (wheat; [6]) was 0 and the “Crabgrass plant response rating” value (crabgrass; [1]) was 0. The “Crabgrass plant response rating” value (crabgrass; [2]) was 3, the “Plant response rating, Crabgrass” value (crabgrass; [7]) was 1 and the “Plant response rating, Crabgrass” value (crabgrass; [3]) was 4. For the same compound, the “Plant response rating, Crabgrass” value (crabgrass; [4]) was 10, the “Crabgrass plant response rating” value (crabgrass; [5]) was 10 and the “Crabgrass plant response rating” value (crabgrass; [6]) was 0. The “Crabgrass plant response rating” value (crabgrass; [8]) was 3, the “Morningglory plant response rating” value (morningglory; [1]) was 0 and the “Morningglory plant response rating” value (morningglory; [2]) was 1. For the same compound, the “Plant response rating, Morningglory” value (morningglory; [7]) was 0, the “Plant response rating, Morningglory” value (morningglory; [3]) was 0 and the “Plant response rating, Morningglory” value (morningglory; [4]) was 0. The “Morningglory plant response rating” value (morningglory; [5]) was 0, the “Morningglory plant response rating” value (morningglory; [6]) was 0 and the “Morningglory plant response rating” value (morningglory; [8]) was 2. For the same compound, the “S. Flatsedge plant response rating” value (smallflower flatsedge; [1]) was 0, the “S. Flatsedge plant response rating” value (smallflower flatsedge; Pre-emergence, Rate 1000 g/ha, scale 0 to 10 (0 no effect, 10 complete control)) was 0 and the “S. Flatsedge plant response rating” value (smallflower flatsedge; [9]) was 0. For the same compound, the “S. Flatsedge plant response rating” value (smallflower flatsedge; [10]) was 0, the “Plant response rating, S. Flatsedge” value (smallflower flatsedge; [12]) was 0 and the “S. Flatsedge plant response rating” value (smallflower flatsedge; [14]) was 8. The “S. Flatsedge plant response rating” value (smallflower flatsedge; [15]) was 0.
